{"source": "paper PMC7782499", "about": "“Progerinin, an optimized progerin-lamin A binding inhibitor, ameliorates premature senescence phenotypes of Hutchinson-Gilford progeria syndrome” (Communications Biology, 2021)", "test": "Pharmacokinetic analysis of SLC-D011 dissolved in monoolein-based solution, oral", "assay_type": "in vivo", "parameters": "unit not given here", "procedure": "Fig. S9. In vitro ADME results of SLC-D011 via oral administration. A. Formulation for complete dissolution. Due to its extremely hydrophobic property, SLC-D011 was not dissolved in water solution (left). To overcome this problem, several edible solutions were tested and monoolein- based solution was selected as a dissolving solution (right). B. SLC-D011 was very stable in solution. For complete dissolution, heating at 80℃ and sonication step were required. However, SLC -D011 was not broken despite of heating […]\nand sonication. […] C and D.\nPharmacokinetic analysis of SLC -D011dissolved in monoolein- based solution."}
{"smiles": "CC1(C)Oc2cc3oc(=O)ccc3cc2C[C@@H]1OC/C=C/c1ccccc1", "note": "[SLC-D011]", "values": [{"measurement": "Plasma concentration, Mean", "setting": "oral 10mg/kg (n=3), 0.25 hr", "result": 41}, {"measurement": "Plasma concentration, Mean", "setting": "oral 10mg/kg (n=3), 0.5 hr", "result": 71}, {"measurement": "Plasma concentration, Mean", "setting": "oral 10mg/kg (n=3), 1 hr", "result": 124.8}, {"measurement": "Plasma concentration, Mean", "setting": "oral 10mg/kg (n=3), 2 hr", "result": 441.9}, {"measurement": "Plasma concentration, Mean", "setting": "oral 10mg/kg (n=3), 4 hr", "result": 318.8}, {"measurement": "Plasma concentration, Mean", "setting": "oral 10mg/kg (n=3), 8 hr", "result": 160.1}, {"measurement": "Plasma concentration, Mean", "setting": "oral 10mg/kg (n=3), 24 hr", "result": 7.7}, {"measurement": "Plasma concentration, Mean", "setting": "oral 20mg/kg (n=3), 0.25 hr", "result": 67.3}, {"measurement": "Plasma concentration, Mean", "setting": "oral 20mg/kg (n=3), 0.5 hr", "result": 93.1}, {"measurement": "Plasma concentration, Mean", "setting": "oral 20mg/kg (n=3), 1 hr", "result": 537.5}, {"measurement": "Plasma concentration, Mean", "setting": "oral 20mg/kg (n=3), 2 hr", "result": 581.7}, {"measurement": "Plasma concentration, Mean", "setting": "oral 20mg/kg (n=3), 4 hr", "result": 899.9}, {"measurement": "Plasma concentration, Mean", "setting": "oral 20mg/kg (n=3), 8 hr", "result": 574}, {"measurement": "Plasma concentration, Mean", "setting": "oral 20mg/kg (n=3), 24 hr", "result": 9.7}]}
